Assay [1] deals with T1, human recombinant histamine H2 receptor (Homo sapiens, UniProt P25021).
T1 construct: expressed in transfected cells; host or cells: CHO-K1 cells
Description: Histamine H2 radioligand binding ([125I]Aminopotentidine). The note with it: for inhibition at 1 µM: percent inhibition of specific binding, screened at 1 μM, read-out: Inhibition of ligand binding, Hist. H2. The gist of the method:
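Test compounds were assessed for their ability to displace radioligand from the human recombinant histamine H2 receptor. Non-specific binding was determined in the presence of 3 μM Tiotidine, and results were expressed as percent inhibition of specific binding, with 1% DMSO serving as the vehicle.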

Assay [2] addresses T2, human recombinant adrenergic α2B receptor (Homo sapiens, UniProt P18089).
T2 construct: expressed in transfected cells; host or cells: CHO-K1 cells
T2 sequence (P18089 1-450): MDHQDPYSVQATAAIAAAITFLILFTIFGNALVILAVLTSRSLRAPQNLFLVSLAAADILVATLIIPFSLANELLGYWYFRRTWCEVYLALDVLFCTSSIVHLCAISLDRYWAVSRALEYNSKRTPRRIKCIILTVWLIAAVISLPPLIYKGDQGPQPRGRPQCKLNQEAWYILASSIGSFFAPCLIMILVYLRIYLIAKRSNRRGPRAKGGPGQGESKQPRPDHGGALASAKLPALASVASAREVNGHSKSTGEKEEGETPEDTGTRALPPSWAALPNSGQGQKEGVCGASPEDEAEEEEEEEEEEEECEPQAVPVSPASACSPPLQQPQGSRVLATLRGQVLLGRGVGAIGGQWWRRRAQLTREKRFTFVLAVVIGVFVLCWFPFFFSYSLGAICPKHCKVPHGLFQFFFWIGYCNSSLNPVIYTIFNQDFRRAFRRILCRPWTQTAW
Nature of the assay: Adrenergic α2B radioligand binding ([3H]Rauwolscine). Also noted: Inhibition of ligand binding, Adren. alpha2B: concentration or dose not given beside the values. The note with it: percent inhibition of specific binding. The method in brief: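 Membranes from CHO-K1 cells expressing the receptor, in 50 mM Tris-HCl pH 7.4 with 12.5 mM MgCl2, 1 mM EDTA, 0.2% BSA, incubated with compounds and 2.5 nM [3H]Rauwolscine for 60 minutes at 25 °C.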

The target of assay [3] is T3, human recombinant dopamine D2L receptor (Homo sapiens, UniProt P14416).
T3 construct: expressed in transfected cells; host or cells: CHO cells
T3 sequence (P14416 whole entry): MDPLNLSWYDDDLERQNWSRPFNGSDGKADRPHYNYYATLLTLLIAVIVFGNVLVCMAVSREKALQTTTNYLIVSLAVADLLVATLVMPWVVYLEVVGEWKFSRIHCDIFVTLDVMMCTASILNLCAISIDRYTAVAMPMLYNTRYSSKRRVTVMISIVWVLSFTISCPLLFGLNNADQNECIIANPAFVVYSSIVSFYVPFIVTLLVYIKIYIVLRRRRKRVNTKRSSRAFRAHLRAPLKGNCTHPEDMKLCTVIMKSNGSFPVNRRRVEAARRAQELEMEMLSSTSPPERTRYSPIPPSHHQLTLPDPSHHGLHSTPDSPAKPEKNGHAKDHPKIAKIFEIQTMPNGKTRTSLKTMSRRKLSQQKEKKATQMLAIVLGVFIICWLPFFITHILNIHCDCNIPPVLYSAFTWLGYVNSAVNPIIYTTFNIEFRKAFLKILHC
Description: Dopamine D2L radioligand binding ([3H]Spiperone). Particulars: percent inhibition of specific binding. The method, then:
Non-specific binding was estimated in the presence of 10 μM Haloperidol. Receptor proteins were filtered and washed, the filters were then counted to determine [^3H]Spiperone specifically bound. […] Biochemical assay results are presented as the percent inhibition of specific binding in Table 6.

Assay [4] deals with T4, human recombinant serotonin (5-Hydroxytryptamine) 5-HT2C receptor (Homo sapiens, UniProt P28335).
T4 construct: expressed in transfected cells; host or cells: CHO-K1 cells
T4 sequence (P28335 33-458): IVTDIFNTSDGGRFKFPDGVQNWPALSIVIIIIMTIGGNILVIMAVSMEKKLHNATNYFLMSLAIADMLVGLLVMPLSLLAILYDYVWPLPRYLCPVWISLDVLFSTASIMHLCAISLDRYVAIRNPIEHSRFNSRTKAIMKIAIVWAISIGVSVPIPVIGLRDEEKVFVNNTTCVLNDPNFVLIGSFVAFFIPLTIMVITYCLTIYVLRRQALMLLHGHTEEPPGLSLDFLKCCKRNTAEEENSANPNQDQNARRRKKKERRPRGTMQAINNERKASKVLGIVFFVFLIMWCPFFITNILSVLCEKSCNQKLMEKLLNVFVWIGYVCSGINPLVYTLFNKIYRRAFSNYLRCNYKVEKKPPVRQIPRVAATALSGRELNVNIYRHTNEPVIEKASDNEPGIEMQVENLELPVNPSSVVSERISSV
Description: Serotonin 5-HT2C radioligand binding ([3H]Mesulergine). Also noted: Inhibition of ligand binding, Ser. 5-HT2C: concentration or dose not given beside the values. The note with it: percent inhibition of specific binding. How it is done: Compounds of the invention were incubated with 1 nM [^3H]Mesulergine for 60 minutes at 25° C. Non-specific binding was estimated in the presence of 1 μM Mianserin. Receptor proteins were filtered and washed, the filters were then counted to determine [^3H]Mesulergine specifically bound. […] Biochemical assay results are presented as the percent inhibition of specific binding in Table 6.

T1 sequence (P25021 whole entry): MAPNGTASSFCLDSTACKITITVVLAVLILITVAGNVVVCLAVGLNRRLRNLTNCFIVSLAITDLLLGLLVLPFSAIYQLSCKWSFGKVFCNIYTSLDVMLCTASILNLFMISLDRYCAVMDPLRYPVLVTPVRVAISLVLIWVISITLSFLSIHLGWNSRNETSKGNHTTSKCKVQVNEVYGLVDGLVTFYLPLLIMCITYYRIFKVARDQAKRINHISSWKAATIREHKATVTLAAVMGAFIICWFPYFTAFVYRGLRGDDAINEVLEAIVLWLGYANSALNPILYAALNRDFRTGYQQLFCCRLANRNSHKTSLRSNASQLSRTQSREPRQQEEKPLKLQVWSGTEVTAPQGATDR

Broadly, the inhibition is the drop in the measured response relative to a control, in per cent. For the compound `Cc1ccc2c(c1)c1c(n2CCc2cnccn2)CCN(C)C1` [Compound 62], the inhibition at 1 µM in assay [1] came to 15%. Further, the “Inhibition of ligand binding, Adren. alpha2B” value (shortened to “Inhibition … Adren. alpha2B”) in assay [2] is 90%. Further, the “Inhibition of ligand binding, Dop. D2L” value in assay [3] is recorded as −3%. Further, the “Inhibition of ligand binding, Ser. 5-HT2C” value (shortened to “Inhibition … Ser. 5-HT2C”) in assay [4] amounted to 88%.
The matching figures for `CN1CCc2c(c3cc(Cl)ccc3n2CCN2CCCCC2)C1` [Compound 189]: 87%, 72%, 0% and 85%.
The matching figures for `CC(C)N1CCN(C(=O)Cn2c3c(c4cc(Cl)ccc42)CN(C)CC3)CC1` [Compound 248]: 7%, 75%, 2% and 59%.
On to `CN1CCc2c(c3cc(F)ccc3n2CCc2ccc(Cl)cc2)C1` [Compound 249], for which the inhibition at 1 µM in assay [1] is 88%. In addition, the “Inhibition … Adren. alpha2B” value in assay [2] was determined as 109%. Further, the “Inhibition of ligand binding, Dop. D2L” value in assay [3] was determined as 64%. For the same compound, the “Inhibition … Ser. 5-HT2C” value in assay [4] was determined as 98%.
On to `Cc1ccc2c(c1)c1c(n2CC(=O)N2CCC(C)CC2)CCN(C)C1` [Compound 251], for which the inhibition at 1 µM in assay [1] worked out at 21%. Further, the “Inhibition … Adren. alpha2B” value in assay [2] was found to be 8%. The “Inhibition of ligand binding, Dop. D2L” value in assay [3] was −7%. Besides, the “Inhibition … Ser. 5-HT2C” value in assay [4] is 23%.
Take `Cc1ccc(CCn2c3c(c4cc(C(=O)O)ccc42)CN(C)CC3)cn1` [Compound 256, 2-Methyl-5-(2-(6-methylpyridin-3-yl)ethyl)-2,3,4,5-tetrahydro-1H-pyrido[4,3-b]indole-8-carboxylic acid]: the inhibition at […] in assay [1] ([…] compound, 0.1 nM [125I]Aminopotentidine, read-out: Histamine Binding H2, percent inhibition of specific binding) is -16%. In addition, the inhibition at 1 µM in assay [1] was -6%. In addition, the “Inhibition … Adren. alpha2B” value in assay [2] worked out at 4%. Further, the “Inhibition … Ser. 5-HT2C” value in assay [4] stood at 0%.
As for `Cc1ccc2c(c1)c1c(n2CC(=O)N2CCCC2)CCN(C)C1` [Compound 257, 2-(1,2,3,4-tetrahydro-2,8-dimethylpyrido[4,3-b]indol-5-yl)-1-(pyrrolidin-1-yl)ethanone], in assay [1], the inhibition at 1 µM came to 1%. Further, in assay [2], the “Inhibition … Adren. alpha2B” value is 20%. Besides, the “Inhibition of ligand binding, Dop. D2L” value in assay [3] is −7%. Also, in assay [4], the “Inhibition … Ser. 5-HT2C” value came to 47%.
The corresponding values for `Cc1ccc(CCn2c3c(c4cc(CO)ccc42)CN(C)CC3)cn1` [Compound 263] are 15%, 105%, −4% and 31%.
The matching figures for `CN1CCc2c(c3cc(Cl)cc(F)c3n2CCc2ccc(C(F)(F)F)nc2)C1` [Compound 338, 8-chloro-6-fluoro-5-(2-(6-(trifluoromethyl)pyridin-3-yl)ethyl)-2,3,4,5-tetrahydro-2-methyl-1H-pyrido[4,3-b]indole]: 78%, 104%, 22% and 68%.
The matching figures for `CN1CCc2c(c3cc(OC(F)(F)F)ccc3n2CCc2ccc(C(F)(F)F)nc2)C1` [Compound 341, 5-(2-(6-(trifluoromethyl)pyridin-3-yl)ethyl)-2,3,4,5-tetrahydro-2-methyl-8-(trifluoromethoxy)-1H-pyrido[4,3-b]indole]: 15%, −1%, 8% and 16%.
For the compound `CC(C)c1ccc2c(c1)c1c(n2CCc2ccc(C(F)(F)F)nc2)CCN(C)C1` [Compound 342, 8-Isopropyl-2-methyl-5-[2-(6-trifluoromethyl-pyridin-3-yl)-ethyl]-2,3,4,5-tetrahydro-1H-pyrido[4,3-b]indole], the inhibition at 1 µM in assay [1] was determined as 39%. Moreover, the “Inhibition … Adren. alpha2B” value in assay [2] was found to be 108%. The “Inhibition of ligand binding, Dop. D2L” value in assay [3] amounted to 29%. Besides, the “Inhibition … Ser. 5-HT2C” value in assay [4] worked out at 73%.
For `CN1CCc2c(c3cc(Cl)c(F)cc3n2CCc2ccc(C(F)(F)F)nc2)C1` [Compound 343], the inhibition at 1 µM in assay [1] worked out at 29%. Further, in assay [2], the “Inhibition … Adren. alpha2B” value is recorded as 117%. The “Inhibition of ligand binding, Dop. D2L” value in assay [3] is −7%. Besides, the “Inhibition … Ser. 5-HT2C” value in assay [4] was determined as 69%.
With `OC1CCC(N2CCc3c(c4cc(Cl)ccc4n3CCc3ccc(C(F)(F)F)nc3)C2)C1` (stereo not shown) [Compound 351, 3-(8-chloro-5-(2-(6-(trifluoromethyl)pyridin-3-yl)ethyl)-3,4-dihydro-1H-pyrido[4,3-b]indol-2(5H)-yl)cyclopentanol], the inhibition at 1 µM in assay [1] is -2%. The “Inhibition … Adren. alpha2B” value in assay [2] is recorded as 43%. The “Inhibition of ligand binding, Dop. D2L” value in assay [3] was determined as 7%. Moreover, the “Inhibition … Ser. 5-HT2C” value in assay [4] is on record as 26%.
Consider `Cc1ccc2c(n1)c1c(n2CCc2ccc(C(F)(F)F)nc2)CCN(C)C1` [Compound 353, 9-aza-2,8-dimethyl-5-(2-(6-(trifluoromethyl)pyridin-3-yl)ethyl)-2,3,4,5-tetrahydro-1H-pyrido[4,3-b]indole], for which the inhibition at 1 µM in assay [1] was -2%. For the same compound, the “Inhibition … Adren. alpha2B” value in assay [2] came out at 11%. Also, the “Inhibition of ligand binding, Dop. D2L” value in assay [3] was 5%. Also, the “Inhibition … Ser. 5-HT2C” value in assay [4] is −15%.
Consider `CCc1ccc2c(c1)c1c(n2CCc2ccc(C(F)(F)F)nc2)CCN(C)C1` [Compound 358, 8-Ethyl-2-methyl-5-[2-(6-trifluoromethyl-pyridin-3-yl)-ethyl]-2,3,4,5-tetrahydro-1H-pyrido[4,3-b]indole], for which the inhibition at 1 µM in assay [1] worked out at 47%. Besides, the “Inhibition … Adren. alpha2B” value in assay [2] amounted to 109%. Further, the “Inhibition of ligand binding, Dop. D2L” value in assay [3] stood at 38%. Also, the “Inhibition … Ser. 5-HT2C” value in assay [4] was determined as 78%.
For `CCc1ccc(CCn2c3c(c4cc(C)ccc42)CN(C)CC3)cn1` [Compound 359, 5-[2-(6-Ethyl-pyridin-3-yl)-ethyl]-2,8-dimethyl-2,3,4,5-tetrahydro-1H-pyrido[4,3-b]indole], the inhibition at 1 µM in assay [1] was 94%. Moreover, the “Inhibition … Adren. alpha2B” value in assay [2] was 90%. The “Inhibition of ligand binding, Dop. D2L” value in assay [3] is 51%. Moreover, the “Inhibition … Ser. 5-HT2C” value in assay [4] is reported as 91%.
Regarding `Cc1ncc(CCn2c3c(c4cc(Cl)ccc42)CN(C)CC3)cn1` [Compound 361, 8-Chloro-2-methyl-5-[2-(2-methyl-pyrimidin-5-yl)-ethyl]-2,3,4,5-tetrahydro-1H-pyrido[4,3-b]indole], in assay [1], the inhibition at 1 µM came to 25%. In addition, the “Inhibition … Adren. alpha2B” value in assay [2] worked out at 94%. Further, the “Inhibition of ligand binding, Dop. D2L” value in assay [3] is recorded as 31%. Further, in assay [4], the “Inhibition … Ser. 5-HT2C” value is 58%.
The corresponding values for `CCc1ccc2c(c1)c1c(n2CCc2cnc(C)nc2)CCN(C)C1` [Compound 362, 8-Ethyl-2-methyl-5-[2-(2-methyl-pyrimidin-5-yl)-ethyl]-2,3,4,5-tetrahydro-1H-pyrido[4,3-b]indole] are 19%, 82%, 17% and 40%.
Take `Cc1cnc(CCn2c3c(c4cc(Cl)ccc42)CN(C)CC3)cn1` [Compound 363, 8-Chloro-2-methyl-5-[2-(5-methyl-pyrazin-2-yl)-ethyl]-2,3,4,5-tetrahydro-1H-pyrido[4,3-b]indole]: the inhibition at 1 µM in assay [1] was 31%. Moreover, the “Inhibition … Adren. alpha2B” value in assay [2] came out at 104%. Moreover, the “Inhibition of ligand binding, Dop. D2L” value in assay [3] came to 24%. Also, the “Inhibition … Ser. 5-HT2C” value in assay [4] is 66%.

The values above are taken from patent US9096591B2, “Tetracyclic compounds” (Medivation Technologies, Inc., priority 2007, dated 2015).
